The results in this text go back to ChEMBL document CHEMBL5532639, “Heterocyclic pyrimidine derivatives as promising antibacterial agents” (Eur J Med Chem, 2023).

Values after ≈ are worked out from the molar mass of the structure shown.

One test concerns Pneumocystis carinii. As to the kind of experiment: Antifungal activity against Pneumocystis carinii assessed as reduction in fungal growth. Type of test: functional, organism-based.
Another test relates to Toxoplasma gondii. As to the kind of experiment: Antiparasitic activity against Toxoplasma gondii assessed as parasitic growth inhibition. Type of test: functional, organism-based.
Another test deals with Proteus vulgaris. Nature of the test: Antimicrobial activity against Proteus vulgaris assessed as microbial growth inhibition incubated for 24 hrs by broth microdilution method. Format: functional. (Dilution methods test growth across graded concentrations, often in twofold steps.)
The test system of another test is Enterococcus faecalis. Nature of the test: Antimicrobial activity against Enterococcus faecalis assessed as inhibition of microbial growth incubated for 18 hrs by CLSI protocol based Mueller-Hinton broth assay. Type of test: functional.
In a further test the test system is Edwardsiella tarda. As to the kind of experiment: Antimicrobial activity against Edwardsiella tarda assessed as inhibition of microbial growth incubated for 18 hrs by CLSI protocol based Mueller-Hinton broth assay. Format: functional.
The test system of the next test is Salmonella paratyphi. Nature of the test: Antibacterial activity against Salmonella paratyphi A CICC 21501 incubated overnight by standard microtiter dilution method. The note with it: Salmonella enterica. Type of test: functional, Salmonella enterica subsp. enterica serovar Paratyphi A.
Test [1] has as its system Salmonella typhimurium. Nature of the test: Antimicrobial activity against Salmonella typhimurium DT104 assessed as inhibition of microbial growth incubated for 18 hrs by CLSI protocol based Mueller-Hinton broth assay. Format: functional, Salmonella enterica subsp. enterica serovar Typhimurium. The settings on record: Salmonella enterica.
Test [2] concerns Morganella morganii. Nature of the test: Antibacterial activity against Morganella morganii UM573 assessed as bacterial growth inhibition incubated for 20 to 22 hrs by CLSI based analysis. Type of test: functional. The note with it: time 20-22 hrs.
The subject of the next test is Plesiomonas shigelloides. As to the kind of experiment: Antibacterial activity against Plesiomonas shigelloides assessed as inhibition of bacterial growth measured after 18 to 20 hrs by broth microdilution method. Format: functional. The settings on record: time 18-20 hrs.
A further test deals with Enterobacter sp. As to the kind of experiment: Antibacterial activity against Enterobacter sp. assessed as inhibition of bacterial growth. Format: functional.
Test [3] concerns Salmonella typhimurium. As to the kind of experiment: Antibacterial activity against Salmonella typhimurium DT104 assessed as reduction in bacterial growth inhibition measured after 24 hrs by Mueller Hinton Agar dilution method. Format: functional, Salmonella enterica subsp. enterica serovar Typhimurium. The settings on record: Salmonella enterica. A general note: Agar dilution tests growth on a series of plates holding different concentrations.

Test [4] has as its system Bacillus subtilis. Nature of the test: Antibacterial activity against Bacillus subtilis assessed as reduction in bacterial growth incubated for 24 hrs by CLSI protocol based Mueller-Hinton broth assay. Type of test: functional.
Another test deals with Citrobacter freundii. Nature of the test: Antibacterial activity against multidrug-resistant Citrobacter freundii assessed as bacterial growth inhibition incubated for 20 to 22 hrs by CLSI based analysis. The settings on record: time 20-22 hrs. Format: functional.
The test system of the next test is Salmonella enterica. As to the kind of experiment: Antimicrobial activity against Salmonella enterica assessed as inhibition of microbial growth incubated for 18 hrs by CLSI protocol based Mueller-Hinton broth assay. Format: functional.
Test [5] relates to Staphylococcus aureus. As to the kind of experiment: Antimicrobial activity against Staphylococcus aureus assessed as inhibition of microbial growth incubated for 18 hrs by CLSI protocol based Mueller-Hinton broth assay. Type of test: functional.
Test [6] has as its system Vibrio cholerae. As to the kind of experiment: Antibacterial activity against Vibrio cholerae assessed as reduction in bacterial growth measured after 18 to 20 hrs by broth microdilution method. The settings on record: time 18-20 hrs. Type of test: functional.
Test [7] concerns Morganella morganii. As to the kind of experiment: Antibacterial activity against Morganella morganii UM869 incubated for 16 to 18 hrs by broth microdilution method. Format: functional. The settings on record: time 16-18 hrs.
The subject of a further test is Providencia rettgeri. Nature of the test: Antibacterial activity against Providencia rettgeri assessed as bacterial growth inhibition incubated for 18 hrs by CLSI protocol based Mueller-Hinton broth assay. Type of test: functional.
Test [8] relates to Vibrio cholerae. As to the kind of experiment: Antibacterial activity against Vibrio cholerae assessed as inhibition of bacterial growth incubated for 24 hrs by broth microdilution method. Type of test: functional.
Test [9] relates to Salmonella enterica subsp. enterica serovar Paratyphi B. As to the kind of experiment: Antibacterial activity against Salmonella paratyphi B CICC 21495 assessed as reduction in […]. Format: functional. The settings on record: time lower 48 hrs.
The subject of test [10] is Staphylococcus epidermidis. As to the kind of experiment: Antimicrobial activity against Staphylococcus epidermidis assessed as inhibition of microbial growth incubated for 18 hrs by CLSI protocol based Mueller-Hinton broth assay. Format: functional.
Test [11] concerns Vibrio cholerae. Nature of the test: Antibacterial activity against Vibrio cholerae measured after 18 to 20 hrs by broth microdilution method. Type of test: functional. The note with it: time 18-20 hrs.
The subject of the next test is Aeromonas hydrophila. Nature of the test: Antibacterial activity against Aeromonas hydrophila assessed as inhibition of microbial growth incubated for 24 hrs by CLSI protocol based Mueller-Hinton broth assay. Type of test: functional.
A further test relates to Shigella sonnei. As to the kind of experiment: Antibacterial activity against Shigella sonnei assessed as inhibition of bacterial growth measured after 18 to 20 hrs by broth microdilution method. Type of test: functional. The note with it: time 18-20 hrs.
The next test deals with Vibrio parahaemolyticus. As to the kind of experiment: Antibacterial activity against Vibrio parahaemolyticus assessed as reduction in bacterial growth inhibition measured after 24 hrs by Mueller Hinton Agar dilution method. Type of test: functional.
Test [12] concerns Escherichia coli. As to the kind of experiment: Antimicrobial activity against Escherichia coli assessed as inhibition of microbial growth incubated for 18 hrs by CLSI protocol based Mueller-Hinton broth assay. Type of test: functional.
Another test concerns Klebsiella pneumoniae. Nature of the test: Antimicrobial activity against Klebsiella pneumoniae assessed as inhibition of microbial growth incubated for 18 hrs by CLSI protocol based Mueller-Hinton broth assay. Type of test: functional.
The next test deals with Shigella flexneri. As to the kind of experiment: Antibacterial activity against Shigella flexneri assessed as inhibition of bacterial growth incubated for 24 hrs by broth microdilution method. Type of test: functional.
The test system of another test is Shigella boydii. As to the kind of experiment: Antibacterial activity against Shigella boydii assessed as inhibition of bacterial growth measured after 18 to 20 hrs by broth microdilution method. Type of test: functional. The note with it: time 18-20 hrs.
In test [13] the test system is Pseudomonas aeruginosa. As to the kind of experiment: Antimicrobial activity against Pseudomonas aeruginosa assessed as inhibition of microbial growth incubated for 18 hrs by CLSI protocol based Mueller-Hinton broth assay. Format: functional.
For test [14], the system named is Escherichia coli. As to the kind of experiment: Antibacterial activity against Escherichia coli assessed as reduction in bacterial growth. Format: functional.
The test system of the next test is Klebsiella sp. Nature of the test: Antibacterial activity against Klebsiella sp. assessed as inhibition of bacterial growth. Format: functional.
The subject of test [15] is Pseudomonas aeruginosa. Nature of the test: Antibacterial activity against Pseudomonas aeruginosa assessed as reduction in bacterial growth. Type of test: functional.
Test [16] relates to Staphylococcus aureus. As to the kind of experiment: Antibacterial activity against Staphylococcus aureus assessed as reduction in microbial growth. Format: functional.
Test [17] concerns Pseudomonas aeruginosa. As to the kind of experiment: Antibacterial activity against Pseudomonas aeruginosa. Type of test: functional.
Test [18] deals with Pseudomonas aeruginosa. Nature of the test: Antibacterial activity against Pseudomonas aeruginosa ATCC 85327 assessed as reduction in bacterial growth measured after 24 hrs by Mueller-Hinton broth assay. Format: functional.
For test [19], the system named is Bacillus subtilis. Nature of the test: Antibacterial activity against Bacillus subtilis assessed as reduction in microbial growth by measuring zone of inhibition. Format: functional.
The subject of test [20] is Bacillus subtilis. Nature of the test: Antibacterial activity against Bacillus subtilis ATCC 465 assessed as reduction in bacterial growth measured after 24 hrs by Mueller-Hinton broth assay. Format: functional.
Test [21] relates to Pseudomonas aeruginosa. As to the kind of experiment: Antimicrobial activity against Pseudomonas aeruginosa assessed as diameter of inhibition zone incubated for 24 hrs by well diffusion assay. Type of test: functional.
The subject of test [22] is Salmonella typhimurium. Nature of the test: Antimicrobial activity against Salmonella typhimurium DT104 assessed as diameter of inhibition zone incubated for 24 hrs by well diffusion assay. Format: functional, Salmonella enterica subsp. enterica serovar Typhimurium.
A further test deals with Micrococcus luteus. As to the kind of experiment: Antimicrobial activity against Micrococcus luteus assessed as diameter of inhibition zone incubated for 24 hrs by well diffusion assay. Type of test: functional.
In test [23] the test system is Bacillus subtilis. As to the kind of experiment: Antimicrobial activity against Bacillus subtilis assessed as diameter of inhibition zone incubated for 24 hrs by well diffusion assay. Type of test: functional.

For orientation: IC50 means the concentration that gives 50% inhibition. Regarding `COc1ccc(-c2cc(C#Cc3ccc(C(=O)O)cc3)cc(Cc3cnc(N)nc3N)c2)cc1OC`, the results for the IC50 with Pneumocystis carinii and in the test on Toxoplasma gondii were 1200 nM and 420 nM, respectively.
A word on the MIC: it is the lowest concentration that inhibits growth of the organism. Turning to `Cc1cc(NS(=O)(=O)c2ccc(N)cc2)no1` [SULFAMETHOXAZOLE], the MIC with Proteus vulgaris was determined as 2500 µg/mL (≈ 9.87 mM); in the test with Enterococcus faecalis, 5000 µg/mL; in the test on Edwardsiella tarda it was 5000 µg/mL; in the test on Salmonella paratyphi, 2500 µg/mL (≈ 9.87 mM); in the test with Salmonella typhimurium [1], 2500 µg/mL; with Morganella morganii [2], 5000 µg/mL (≈ 19.7 mM). For the same compound, the MIC with Plesiomonas shigelloides came to 5000 µg/mL (≈ 19.7 mM); with Enterobacter sp., 1250 µg/mL (≈ 4.94 mM); in the test with Salmonella typhimurium [3], 5000 µg/mL (≈ 19.7 mM); in the test on Bacillus subtilis [4] it was 5000 µg/mL (≈ 19.7 mM); in the test on Citrobacter freundii, 5000 µg/mL (≈ 19.7 mM); with Salmonella enterica it was 2500 µg/mL. The minimum inhibitory concentration (MIC) in the test with Staphylococcus aureus [5] was 5000 µg/mL; in the test with Vibrio cholerae [6], 5000 µg/mL (≈ 19.7 mM); in the test on Morganella morganii [7], 2500 µg/mL (≈ 9.87 mM); with Providencia rettgeri, 2500 µg/mL (≈ 9.87 mM); in the test on Vibrio cholerae [8], over 5000 µg/mL; in test [9] it was 5000 µg/mL (≈ 19.7 mM). Moreover, the MIC came to 2500 µg/mL in test [10]; 312 µg/mL (≈ 1.23 mM) against Vibrio cholerae [11]; 2500 µg/mL with Aeromonas hydrophila; 2500 µg/mL (≈ 9.87 mM) in the test with Shigella sonnei; 1250 µg/mL (≈ 4.94 mM) in the test on Vibrio parahaemolyticus; 2500 µg/mL with Escherichia coli [12]. Besides, the minimum inhibitory concentration (MIC) is 2500 µg/mL in the test with Klebsiella pneumoniae, 2500 µg/mL (≈ 9.87 mM) in the test on Shigella flexneri, 2500 µg/mL (≈ 9.87 mM) in the test with Shigella boydii and 78.1 µg/mL in the test on Pseudomonas aeruginosa [13].
On to `COc1ccc2cc(-c3nc4sc5c(c4c(=O)n3N)CCCC5)ccc2c1`, for which the MIC in the test with Escherichia coli [14] came to 12.5 µg/mL (≈ 0.0331 mM); in the test on Klebsiella sp., 12.5 µg/mL (≈ 0.0331 mM); in the test on Pseudomonas aeruginosa [15], 12.5 µg/mL (≈ 0.0331 mM); in the test on Staphylococcus aureus [16], 12.5 µg/mL.
Turning to GENTAMICIN, the MIC in the test with Pseudomonas aeruginosa [17] stood at 0.98 µg/mL; in the test on Pseudomonas aeruginosa [18], 1 µg/mL; in the test on Bacillus subtilis [20], 0.125 µg/mL. The inhibition zone (IZ) in the test with Bacillus subtilis [19] worked out at 24 mm.
Take `NC(=O)N/N=C/c1ccc([N+](=O)[O-])o1` [NITROFURAZONE]: the MIC with Escherichia coli [14] amounted to 12.5 µg/mL (≈ 0.0631 mM); in the test with Klebsiella sp., 12.5 µg/mL (≈ 0.0631 mM); with Pseudomonas aeruginosa [15], 6 µg/mL (≈ 0.0303 mM); with Staphylococcus aureus [16], 12.5 µg/mL.
For `CC[C@H]1OC(=O)[C@H](C)[C@@H](O[C@H]2C[C@@](C)(OC)[C@@H](O)[C@H](C)O2)[C@H](C)[C@@H](O[C@@H]2O[C@H](C)C[C@H](N(C)C)[C@H]2O)[C@](C)(O)C[C@@H](C)C(=O)[C@H](C)[C@@H](O)[C@]1(C)O` [ERYTHROMYCIN], the “inhibition zone (IZ)” value came out at 10 mm with Pseudomonas aeruginosa [21], 7 mm in the test on Salmonella typhimurium [22], 10 mm with Micrococcus luteus and 12 mm in the test on Bacillus subtilis [23].
